Reference: article PMC6286365 (Scientific Reports, 2018)
Entries after “also recorded” stand apart in the source; their conditions may differ.

How the values were obtained:
alkaline phosphatase = assay: Counter assay without nSMase2 and SM, phosphorylcholine as substrate (enzyme-coupled detection reactions); format: biochemical; details: no nSMase2, no SM; phosphorylcholine 2 μM as substrate
[1] = Metabolic stability in mouse liver microsomes with NADPH; format: in vitro ADME; details: pH 7.4, 1 μM compound, read-out: percent remaining
Protocol: One potential liability when using chemical probes in vivo is lack of metabolic stability which structurally inactivates the compound before it can reach its molecular target. […] Percent of drug remaining over time was determined by liquid chromatography–tandem mass spectrometry analysis (LC/MS/MS).
Metabolic stability assay was conducted in mouse or human liver microsomes as we have described previously with minor modifications. Briefly, the reaction was carried out using potassium phosphate buffer (100 mM, pH 7.4), in the presence of an NADPH regenerating system (compound final concentration was 1 μM; 0.2 mg/mL microsomes). Compound disappearance was monitored over time using a liquid chromatography and tandem mass spectrometry (LC/MS/MS) method. Chromatographic analysis was performed using an Accela ultra high-performance system consisting of an analytical pump and an autosampler coupled with a TSQ Vantage mass spectrometer (Thermo Fisher Scientific Inc., Waltham, MA). […] The mobile phase consisted of 0.1% formic acid in acetonitrile and 0.1% formic acid in water with gradient elution.

primary astrocytes = assay: Inhibition of EV release from primary astrocytes (FBS withdrawal, nanoparticle tracking); format: cell-based, rat; details: 2 h treatment, dose range of concentrations
Protocol: (§1) Independent laboratories have shown that pharmacological and genetic inhibition of nSMase2 blocks EV secretion from glial cells. […] Two hours after treatment, EVs were isolated from the media and quantified by nanoparticle tracking analysis. […] Cells were fixed and immunofluorescence labeling for GFAP was performed.
(§2) Media was collected after 2 h incubation and centrifuged at 2700 × g for 15 min at 4 °C. Supernatant was collected and the number of extracellular vesicles (EVs) was quantified using ZetaView Nanoparticle Tracker. The mean concentration of EVs/mL (±SEM) was calculated from 4 replicate experiments. […] Astrocytes grown in complete medium were used as no treatment control. Cells were fixed and stained with anti-GFAP antibody (1:500, Sigma). Fluorescence intensity was measured using Image J. (C) Quantitation of fluorescence in (B). Bar graph represents background corrected mean fluorescence intensity measured from 100 astrocytes per condition. Error bars represent standard error of mean. One-way ANOVA followed by Tukey’s posthoc test was performed.
Potential inhibition of test compounds on EV release from primary astrocytes was carried out as previously described (Dickens et al., 2017). Briefly, rat primary astrocytes were seeded onto 6-well plates at a density of 20,000 cells/well. Twenty-four hours after seeding, astrocytes were washed with PBS and the medium changed to media without FBS. Absence of FBS mimics a trophic factor withdrawal stimulus causing EVs to be released from astrocytes via an nSMase2-dependent pathway. […] The supernatant was collected and the number of EVs quantified using ZetaView Nanoparticle Tracker (Particle Metrix GmBH, Meerbusch, Germany) and the corresponding ZetaVeiw software (8.03.04.01). Nanosphere size standard 100 nm (Thermo Scientific) was used to calibrate the instrument prior to sample readings. […] For each sample 1 mL of the supernatant was injected into the sample-carrier cell and the particle count measured at 5 positions, with 2 cycles of reading per position. […] Mean concentration of EVs/mL (±SEM) was calculated from 4 replicates.

Rat primary astrocytes = assay: Astrocyte activation, GFAP immunofluorescence (+/-) serum deprivation; format: cell-based; details: 10 μM, 2 h
Protocol: as §1, §2

GFAP-GFP mice = assay: Striatal IL-1β brain inflammation model: neutrophil infiltration into brain (Ly6b immunohistochemistry); format: in vivo, mouse; details: 10 mg/kg IP 0.5 h before and 12 h after IL-1β; 24 h
Protocol: As we have previously shown[11],[18], striatal injection of IL-1β in mice expressing GFP-GFAP in astroglia triggers a release of GFP-labelled EVs that rapidly enter into plasma, resulting in cytokine upregulation in liver and peripheral immune cell migration into brain[11]. […] There were two groups of mice: the first group was sacrificed 2 h after IL-1β administration by heart puncture, and GFP-labeled circulating EVs were measured with liver cytokines. […] Counting of astrocyte-released EV (GFP+) from blood and liver cytokine analysis was conducted by single injection of DPTIP. […]
Compounds were given 0.5 h before IL-1β dosing. […] (C) Liver cytokine levels under different treatments as measured by qRT-PCR of RNA isolated from fresh frozen liver tissue. Samples were analyzed in triplicate. **p < 0.01 and *p < 0.05 compared to saline control; ^##p < 0.01 and ^#p < 0.05 compared to IL1-β group. (D) Neutrophil levels in brain as measured by immunohistochemistry using coronal brain sections and Ly6b antibody. (E) Quantitation of (D); **p < 0.01 compared to saline control; ^##p < 0.01 compared to IL1-β group.
Coronal brain sections (30 µm) were prepared using a cryostat microtome (Leica). […] Stereological quantitation was performed using a one-in-five series (270-µm spacing), from the rostral point of bregma +1.10 mm to the caudal point of bregma −0.58 mm as previously described.

## COc1cc(-c2nc(-c3cccs3)c(-c3ccccc3)[nH]2)cc(OC)c1O [DPTIP, 2,6-Dimethoxy-4-(5-Phenyl-4-Thiophen-2-yl-1H-Imidazol-2-yl)-Phenol]
Alkaline phosphatase
  IC50: > 100 µM
[1]
  remaining at 1 h, 1 μM: 100%
Primary astrocytes
  effect on EV release from primary astrocytes: dose-dependently inhibited EV release; also recorded: inhibited EV release from astrocytes in a dose dependent manner
Rat primary astrocytes; no serum starvation
  effect on GFAP levels without serum starvation: did not change GFAP levels
Rat primary astrocytes; with serum deprivation
  effect on astrocyte activation (GFAP) in response to serum starvation: prevented astrocyte activation
GFAP-GFP mice
  reduction of neutrophil migration into brain compared to IL-1β-treated animals: 80 ± 23%
